Here are results for 2 molecules from publication PMC7332102, “Ubiquitin activation is essential for schizont maturation in Plasmodium falciparum blood-stage development” (PLoS Pathogens, 2020).

SMILES strings stand for the structures.

This assay deals with T1, PfUBA1 (ubiquitin activating enzyme, E1; PF3D7_1225800) (Plasmodium falciparum, UniProt Q8I5F9).
T1 construct: Thr39 to Lys1140, N-terminal His10-tag, insect cells; with ubiquitin (Cy5-labelled, M1C)
As to the kind of experiment: Cy5-ubiquitin~E1 thioesterification gel assay with recombinant PfUBA1. Type of assay: biochemical.

T1 sequence (Q8I5F9 entry or part of it): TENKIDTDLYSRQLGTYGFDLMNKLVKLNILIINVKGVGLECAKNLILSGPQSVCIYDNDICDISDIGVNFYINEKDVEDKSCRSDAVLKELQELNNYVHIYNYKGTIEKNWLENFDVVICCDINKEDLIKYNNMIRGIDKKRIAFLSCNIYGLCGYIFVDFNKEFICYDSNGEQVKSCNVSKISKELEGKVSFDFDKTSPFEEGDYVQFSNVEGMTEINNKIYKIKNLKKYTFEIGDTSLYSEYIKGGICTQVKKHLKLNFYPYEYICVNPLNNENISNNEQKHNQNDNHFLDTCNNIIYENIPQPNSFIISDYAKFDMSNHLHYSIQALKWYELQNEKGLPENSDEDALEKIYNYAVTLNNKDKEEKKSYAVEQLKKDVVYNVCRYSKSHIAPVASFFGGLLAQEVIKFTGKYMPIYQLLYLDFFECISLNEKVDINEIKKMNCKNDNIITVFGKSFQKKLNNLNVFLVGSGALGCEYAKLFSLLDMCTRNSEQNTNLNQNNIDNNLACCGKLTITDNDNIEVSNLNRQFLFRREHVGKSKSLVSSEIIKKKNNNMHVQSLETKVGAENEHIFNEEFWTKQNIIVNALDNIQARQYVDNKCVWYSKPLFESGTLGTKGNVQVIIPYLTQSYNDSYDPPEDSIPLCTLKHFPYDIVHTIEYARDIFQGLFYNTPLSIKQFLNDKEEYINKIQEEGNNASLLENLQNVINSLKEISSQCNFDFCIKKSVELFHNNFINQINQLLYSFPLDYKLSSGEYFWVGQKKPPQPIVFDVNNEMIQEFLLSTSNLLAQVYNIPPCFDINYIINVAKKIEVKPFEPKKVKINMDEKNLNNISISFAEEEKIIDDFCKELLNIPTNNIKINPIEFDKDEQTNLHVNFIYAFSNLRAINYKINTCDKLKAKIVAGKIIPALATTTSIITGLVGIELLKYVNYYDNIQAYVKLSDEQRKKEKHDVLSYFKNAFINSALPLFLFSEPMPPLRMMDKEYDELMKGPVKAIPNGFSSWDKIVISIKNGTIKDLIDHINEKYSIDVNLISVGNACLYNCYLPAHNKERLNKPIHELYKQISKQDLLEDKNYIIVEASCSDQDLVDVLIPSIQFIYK

In general, IC50 refers to the point on the concentration scale where inhibition reaches its midpoint. Take `NS(=O)(=O)OC[C@@H]1C[C@@H](n2ccc3c(N[C@H]4CCc5ccccc54)ncnc32)C[C@@H]1O` [MLN4924]: the IC50 worked out at 47 ± 5 µM. With `NS(=O)(=O)OC[C@H]1C[C@@H](Nc2ccnc3cc(-c4cccc(SC(F)(F)F)c4)nn23)[C@H](O)[C@@H]1O` [MLN7243], the IC50 worked out at 1.4 ± 0.2 µM.
